# Test results reported in patent US20220000117A1, “METHOD FOR CONTROLLING DISEASES IN SMALL GRAIN CEREALS, SEED OF SMALL GRAIN CEREALS, AND METHOD FOR SUPPRESSING LODGING DAMAGE IN SMALL GRAIN CEREALS” (KUMIAI CHEMICAL INDUSTRY CO., LTD., priority 2019, published 2022).
# Key:
# septoria leaf blotch = test: Test Example 7: control test of septoria leaf blotch of wheat, field, wheat variety TRAPEZ; format: in vivo, Septoria tritici; conditions: for Degree of Disease Occurrence: flag leaves, 219 days after seeding
# Experimental: (§1) Degree of Disease Occurrence=Σ(Index×Number of Leaves of Index)/(4×Number of Investigated Leaves)×100 (1)
# Seed of wheat (variety: TRAPEZ) was used. On seed having a mass of 1 kg, 20 ml of suspension water containing 0.5 g or 5 g of dichlobentiazox or isotianil was sprayed. In Examples 16, 17, and 18, the seed treated with the chemical was stripe-sown with a ratio of 100 kg/ha. In contrast, in Comparative Example 17, seed which had not treated with dichlobentiazox or isotianil was sown in a field in the same manner, and a spray solution corresponding to that obtained by suspending 750 g of chlomthalonil (commercial FUNGISTOP was used, “FUNGISTOP” is a registered trademark) in 200 liters of water per 1 ha was sprayed on foliage of wheat 154 days and 184 days after seeding. The severity of disease occurrence of septoria leaf blotch in flag leaves of 25 stems was investigated 219 days after seeding according to the criteria in Table 1, and the degree of disease occurrence was calculated by the above calculation formula (1).
# powdery mildew [1] = test: Test Example 5: control test of wheat powdery mildew, field, wheat variety Haruyutaka; format: in vivo, Blumeria graminis; conditions: for Degree of Disease Occurrence / Disease Leaf Rate (%): Seed Treatment 2.5 g/Seed 1 kg (250 g/ha), leaves just below flag leaves, 85 days after seeding
# Experimental: as §1
# Seed of wheat (variety: Haruyutaka) sterilized in advance with commercial Benlate T wettable powder 20 (“Benlate” is a registered trademark) was used. In Examples 12, 13, and 14, seed having a mass of 1 kg was mixed into 50 ml of suspension water containing 2.5 g or 1.25 g of dichlobentiazox or 50 ml of suspension water containing 2.5 g of isotianil, air-dried, and then, stripe-sown in a field with a furrow width of 30 cm and a ratio of 100 kg/ha (300 seeds/m^2). Moreover, in Comparative Example 14, seed having a mass of 1 kg was mixed into 50 ml of suspension water containing 2.5 g of tiadinil (commercial V-GET flowable was used, “V-GET” is a registered trademark), air-dried, and then, stripe-sown in a field with a furrow width of 30 cm and a ratio of 100 kg/ha (300 seeds/m^2). The presence or absence of disease occurrence and a lesion area ratio of powdery mildew in leaves just below hag leaves (next leaves) of 30 stems were investigated 85 days after seeding by according to the criteria in Table 1, and a disease leaf rate and the degree of disease occurrence were calculated by the above calculation formula(1).
# [2] = tested on: wheat (variety: Norin No. 61); test: Test Example 3: emergence rate of wheat seed; format: in vivo
# Experimental: (§2) Seed having a mass of 1 kg of wheat (variety: Norin No. 61) was mixed into 100 ml of suspension water containing 5 g or 0.5 g of dichlobentiazox or isotianil and air-dried, and then, 12 seeds were sown in a plastic cup having a diameter of 6 cm containing river sand and managed in a greenhouse. The number of emerged seeds was investigated nine days after seeding, and an emergence rate was calculated (Examples 6 to 9). In Comparative Examples 6 to 9, 20 ml of suspension water of an active ingredient, which had been adjusted to have a concentration shown in Table 4, was sprayed in a frame of 45 cm×45 cm in which a pot of wheat seedlings was placed (corresponding to 1000 L/ha) 14 days after seeding. On day 14 after seeding, conidiospores of powdery mildew were sifted over leaves of wheat seedlings and inoculated onto the leaves (after the sprayed liquid was dried in the case of Comparative Examples), a lesion area ratio of powdery mildew in a first leaf was investigated 19 days after seeding according to the criteria in Table 1, and the degree of disease occurrence was calculated by the above calculation formula (1).
# powdery mildew [3] = test: Test Example 2: control test of wheat powdery mildew, pot in greenhouse, inoculated, wheat variety Norin No. 61; format: in vivo, Blumeria graminis; conditions: for Degree of Disease Occurrence: inoculated day 49, first leaf, 59 days after seeding
# Experimental: as §1
# (§3) Seed having a mass of 1 kg of wheat (variety: Norin No. 61) was mixed into 100 ml of suspension water containing 5 g or 0.5 g of dichlobentiazox or isotianil (commercial Routine flowable was used, “Routine” is a registered trademark) and air-dried, and then, 15 seeds were sown in a plastic pot of 9 cm×9 cm containing horticultural soil and managed in a greenhouse. The number of emerged seeds was investigated 10 days after seeding, and an emergence rate was calculated (Examples 2 to 5). On day 49 after seeding, conidiospores of powdery mildew were sifted over leaves of wheat seedlings and inoculated onto the leaves, a lesion area ratio of powdery mildew in a first leaf was investigated 59 days after seeding according to the criteria in Table 1, and the degree of disease occurrence was calculated by the above calculation formula (1).
# [4] = tested on: wheat (variety: Norin No. 61); test: Test Example 2: emergence rate of treated wheat seed; format: in vivo; conditions: 10 days after seeding
# Experimental: as §3
# powdery mildew [5] = test: Test Example 3: control test of wheat powdery mildew, cup in greenhouse, inoculated; format: in vivo, Blumeria graminis; design: key to Degree of Disease Occurrence: Σ(index×no. leaves of index)/(4×no. investigated leaves)×100; conditions: for Degree of Disease Occurrence: 19 days after seeding
# Experimental: as §1, §2
# powdery mildew [6] = test: Test Example 1: control test of wheat powdery mildew, field, wheat variety Haruyutaka; format: in vivo, Blumeria graminis; conditions: Foliage Treatment, spray 125 g/ha three times; flag leaves, 79 days after seeding
# Experimental: Seed of wheat (variety: Haruyutaka) sterilized in advance with commercial Benlate T wettable powder 20 (“Benlate” is a registered trademark) was used. In Example 1, seed having a mass of 1 kg was mixed into 100 ml of suspension water containing 5 g of dichlobentiazox, air-dried, and then, stripe-sown in a field with a furrow width of 30 cm and a ratio of 163 kg/ha (417 seeds/m^2). In contrast, in Comparative Example 1, seed which had not treated with dichlobentiazox was sown in a field in the same manner, and a spray solution corresponding to that obtained by suspending 500 g of dichlobentiazox in 200 liters of water per 1 ha was sprayed on foliage of wheat three times, during an ear emergence period (63 days after seeding), a flowering period (70 days after seeding), and a flowering end period (77 days after seeding). Similarly, in place of 500 g of dichlobentiazox in Comparative Example 1, 250 g of azoxystrobin (commercial Amistar 20 flowable was used. “Amistar” is a registered trademark) was used in Comparative Example 2, and 125 g of propiconazole (commercial Tilt emulsifiable concentrate 25 was used, “Tilt” is a registered trademark) was used in Comparative Example 3. The presence or absence of disease occurrence and a lesion area ratio of powdery mildew in flag leaves of 30 stems were investigated 79 days after seeding according to the criteria in Table 1, and a disease leaf rate and the degree of disease occurrence were calculated by the following calculation formula (1).
# as §1
# [7] = tested on: wheat (variety: Haruyutaka); test: Test Example 6: evaluation test of shortening of wheat (culm length, seed yield), field; format: in vivo; conditions: Propiconazole foliage spray 125 g/ha three times only, no seed treatment
# [8] = Seed Treatment 0.5 g/Seed 1 kg (50 g/ha)
# [9] = Seed Treatment 5 g/Seed 1 kg (500 g/ha)
compound,measurement,setting,value
"N#Cc1c(Cl)c(Cl)c(Cl)c(C#N)c1Cl [Chlorothalonil, chlorothalonil, reference compound]",Degree of Disease Occurrence,"septoria leaf blotch; Foliage Treatment, spray 750 g/ha two times (154 and 184 days after seeding)",3.1
"N#Cc1ccccc1NC(=O)c1snc(Cl)c1Cl [Compound (10), Isotianil]",Degree of Disease Occurrence,powdery mildew [1],1.0
same,Disease Leaf Rate (%),powdery mildew [1],4.4%
same,"disease occurrence of powdery mildew, seed treatment compared with seed treatment with tiadinil",powdery mildew [1]; seed treatment,suppresses the disease occurrence of powdery mildew lower
same,Emergence Rate (%),"[2]; Foliage Treatment group, spray 50 ppm (50 g/ha) 14 days after seeding, emergence counted nine days after seeding",97%
same,Emergence Rate (%),"[2]; Foliage Treatment group, spray 500 ppm (500 g/ha) 14 days after seeding, emergence counted nine days after seeding",100%
same,Emergence Rate (%),"[2]; Seed Treatment 0.5 g/Seed 1 kg (50 g/ha), nine days after seeding",100%
same,Emergence Rate (%),"[2]; Seed Treatment 5 g/Seed 1 kg (500 g/ha), nine days after seeding",83.3%
same,Degree of Disease Occurrence,powdery mildew [3]; [8],7.6
same,Degree of Disease Occurrence,powdery mildew [3]; [9],7.1
same,disease occurrence under artificial inoculation of powdery mildew,powdery mildew [3]; seed treatment,the disease occurrence was suppressed
same,Emergence Rate (%),[4]; [8],96%
same,Emergence Rate (%),[4]; [9],100%
same,Degree of Disease Occurrence,"powdery mildew [5]; Foliage Treatment, spray 50 ppm suspension water (50 g/ha) day 14, first leaf",47.2
same,Degree of Disease Occurrence,"powdery mildew [5]; Foliage Treatment, spray 500 ppm suspension water (500 g/ha) day 14, first leaf",27.8
same,Degree of Disease Occurrence,"powdery mildew [5]; Seed Treatment 0.5 g/Seed 1 kg (50 g/ha), inoculated day 14, first leaf",23.5
same,Degree of Disease Occurrence,"powdery mildew [5]; Seed Treatment 5 g/Seed 1 kg (500 g/ha), inoculated day 14, first leaf",4.4
same,"disease occurrence of powdery mildew, seed treatment compared with spraying on foliage during a growing period",powdery mildew [5]; seed treatment,suppressed lower
same,Degree of Disease Occurrence,septoria leaf blotch; [8],2.1
same,"disease occurrence of septoria leaf blotch, seed treatment compared with foliage spraying of chlorothalonil",septoria leaf blotch; seed treatment,more suppressed
"CCCC1COC(Cn2cncn2)(c2ccc(Cl)cc2Cl)O1 (centres unmarked) [Propiconazole, propiconazole, reference compound]",Degree of Disease Occurrence,powdery mildew [6],4.4
same,Disease Leaf Rate (%),powdery mildew [6],32.2%
same,Culm Length (cm),[7]; harvested 106 days after seeding,82.5 cm
same,Seed Yield,"[7]; wheat in 3 m2, 106 days after seeding",990 g
"Cc1ccc(NC(=O)c2snnc2C)cc1Cl [Tiadinil, tiadinil, reference compound]",Degree of Disease Occurrence,powdery mildew [1],11.0
same,Disease Leaf Rate (%),powdery mildew [1],33.3%
